Results: patent US20260138976A1 (Hoffmann-La Roche Inc., priority 2022, published 2026)

How the values were obtained:
primary human T-cells = assay: IL2 secretion measurements (24 h, CD3-stimulated T-cells, PBS counter screen); assay type: cell-based; conditions: for Emax IL2 (% activation): CD3 condition, normalised to DMSO (neutral) and 20 μM reference compound A1 = 100%; for EC50: Homo sapiens, T-cell, CD3-stimulated primary human T-cells, IL2 secretion, fitted sigmoidal curve, read-out: Tcell IL2 CD3 EC50
Procedure, shortened: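 IL-2 secretion was measured by ProQuantum or ELISA after 24 h culture of expanded human T-cells with compound, on CD3-antibody-coated plates or PBS counter-screen plates. Dosing used 5–6 points from a 20 or 10 μM final top at 3.333-fold steps in 0.2% DMSO. EC50/Emax were scaled between DMSO and 20 μM reference A1.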

[1] = target: T1, DGKζ (hDGKzeta(1-928)-N-His) (Homo sapiens, UniProt Q13574); assay: In vitro DGK inhibition assay, DGKzeta ADP Glo (in house); assay type: biochemical; conditions: 2 nM DGKζ, 50 μM ATP, 125 uM DLG in liposomes, 1 hour reaction
T1 construct: hDGKzeta(1-928)-N-His; His (N); made in house; host or cells: Sf21 insect cells (baculovirus)
T1 sequence (Q13574 whole entry): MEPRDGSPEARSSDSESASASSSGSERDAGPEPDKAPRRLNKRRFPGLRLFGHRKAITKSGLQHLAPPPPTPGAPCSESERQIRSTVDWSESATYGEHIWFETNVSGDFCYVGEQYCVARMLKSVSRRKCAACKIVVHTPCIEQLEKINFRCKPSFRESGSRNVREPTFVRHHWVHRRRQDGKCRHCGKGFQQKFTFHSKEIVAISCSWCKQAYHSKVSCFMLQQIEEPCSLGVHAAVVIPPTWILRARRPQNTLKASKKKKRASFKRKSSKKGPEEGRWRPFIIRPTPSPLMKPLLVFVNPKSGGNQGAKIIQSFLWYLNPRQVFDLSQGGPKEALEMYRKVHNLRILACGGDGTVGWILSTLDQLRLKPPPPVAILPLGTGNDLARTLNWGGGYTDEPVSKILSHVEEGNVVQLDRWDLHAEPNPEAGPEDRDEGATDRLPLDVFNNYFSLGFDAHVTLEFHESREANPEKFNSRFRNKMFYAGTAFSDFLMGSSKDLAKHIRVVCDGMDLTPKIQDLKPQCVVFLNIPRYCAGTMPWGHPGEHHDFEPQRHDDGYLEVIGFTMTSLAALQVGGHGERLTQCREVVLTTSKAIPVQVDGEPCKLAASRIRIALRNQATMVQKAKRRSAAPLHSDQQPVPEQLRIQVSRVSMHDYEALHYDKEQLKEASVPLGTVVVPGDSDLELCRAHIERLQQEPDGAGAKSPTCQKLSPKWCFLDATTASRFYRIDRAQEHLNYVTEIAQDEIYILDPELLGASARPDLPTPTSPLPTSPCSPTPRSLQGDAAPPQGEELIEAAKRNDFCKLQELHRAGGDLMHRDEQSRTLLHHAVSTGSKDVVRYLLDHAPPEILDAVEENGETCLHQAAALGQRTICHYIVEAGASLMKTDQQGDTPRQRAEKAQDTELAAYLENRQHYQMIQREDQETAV
Procedure, shortened: (§1)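 ADP-Glo luminescence measured ADP formed over 1 h by Sf21-expressed full-length human enzymes: DGKα at 4 nM with 25 µM ATP, DGKζ at 2 nM with 50 µM ATP, both on 125 µM DLG in PS/PC liposomes. Dose–response used 11 threefold dilutions at 2% final DMSO.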

[2] = target: T2, DGKα (hDGKalpha(1-735)-N-His) (Homo sapiens, UniProt P23743); assay: In vitro DGK inhibition assay, DGKalpha ADP Glo (in house); assay type: biochemical; conditions: 4 nM DGKα, 25 μM ATP, 125 uM DLG in liposomes, 1 hour reaction
T2 construct: hDGKalpha(1-735)-N-His; His (N); made in house; host or cells: Sf21 insect cells (baculovirus)
T2 sequence (P23743 whole entry): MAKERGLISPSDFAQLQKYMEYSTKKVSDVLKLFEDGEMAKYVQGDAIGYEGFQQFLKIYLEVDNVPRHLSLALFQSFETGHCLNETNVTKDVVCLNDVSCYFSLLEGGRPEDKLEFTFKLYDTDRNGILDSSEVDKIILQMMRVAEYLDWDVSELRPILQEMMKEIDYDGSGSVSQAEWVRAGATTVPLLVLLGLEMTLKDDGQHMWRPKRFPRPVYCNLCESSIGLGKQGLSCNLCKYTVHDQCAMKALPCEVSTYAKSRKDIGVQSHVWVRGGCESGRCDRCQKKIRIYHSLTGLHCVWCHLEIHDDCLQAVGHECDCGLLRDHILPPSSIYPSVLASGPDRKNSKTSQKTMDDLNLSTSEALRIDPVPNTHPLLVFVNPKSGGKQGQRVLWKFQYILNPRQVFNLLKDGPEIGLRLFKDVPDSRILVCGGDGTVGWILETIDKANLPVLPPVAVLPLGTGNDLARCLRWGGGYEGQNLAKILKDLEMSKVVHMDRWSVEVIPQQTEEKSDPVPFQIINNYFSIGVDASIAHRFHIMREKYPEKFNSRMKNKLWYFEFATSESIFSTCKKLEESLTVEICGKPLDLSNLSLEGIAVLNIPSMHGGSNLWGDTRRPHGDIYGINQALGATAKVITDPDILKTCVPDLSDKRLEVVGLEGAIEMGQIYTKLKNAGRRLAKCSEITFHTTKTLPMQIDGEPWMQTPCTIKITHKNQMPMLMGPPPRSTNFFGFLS
Procedure, shortened: as §1

Row | IC50 [1] | IC50 [2] | Compound | Emax IL2 (% activation) (primary human T-cells) | EC50 (primary human T-cells)
1 | 1260 nM | 11800 nM | N[C@H]1CS(=O)(=O)c2ccc(-c3nnc(N4CCOC(F)(F)C4)o3)cc2N(Cc2ccc(-c3nnc(C(F)(F)F)o3)cc2)C1=O [Example 80] | 360 % activation | 3540 nM
2 | 2140 nM | 23900 nM | CC(C)(C)c1nnc(-c2ccc3c(c2)N(Cc2ccc(-n4nnc(C(F)(F)F)n4)cc2)C(=O)[C@@H](N)CS3(=O)=O)o1 [Example 90, (3R)-3-amino-7-(5-tert-butyl-1,3,4-oxadiazol-2-yl)-1,1-dioxo-5-[[4-[5-(trifluoromethyl)tetrazol-2-yl]phenyl]methyl]-2,3-dihydro-1λ^6,5-benzothiazepin-4-one] | 159 % activation | 1010 nM
3 | 1710 nM | 17500 nM | Cn1nc(C(F)(F)F)cc1-c1ccc(CN2C(=O)[C@@H](N)CS(=O)(=O)c3ccc(-c4nnc(C(C)(C)C)o4)cc32)cc1 [Example 92] | 157 % activation | 2000 nM
4 | 485 nM | 884 nM | CC(C)(C)c1nnc(-c2ccc3c(c2)N(Cc2ccc(-c4ncc(C(F)(F)F)o4)cc2)C(=O)[C@@H](N)CS3(=O)=O)o1 [Example 93, (3R)-3-amino-7-(5-tert-butyl-1,3,4-oxadiazol-2-yl)-1,1-dioxo-5-[[4-[5-(trifluoromethyl)oxazol-2-yl]phenyl]methyl]-2,3-dihydro-1λ^6,5-benzothiazepin-4-one] | 279 % activation | 202 nM
5 | 3380 nM | 24600 nM | CC(O)(c1nnc(-c2ccc3c(c2)N(Cc2ccc(-c4noc(C(F)(F)F)n4)cc2)C(=O)[C@@H](N)CS3(=O)=O)o1)C(F)(F)F (stereo partly drawn) [Example 96, (3R)-3-amino-1,1-dioxo-7-[5-(2,2,2-trifluoro-1-hydroxy-1-methyl-ethyl)-1,3,4-oxadiazol-2-yl]-5-[[4-[5-(trifluoromethyl)-1,2,4-oxadiazol-3-yl]phenyl]methyl]-2,3-dihydro-1λ^6,5-benzothiazepin-4-one] | 232 % activation | 1360 nM
6 | 1460 nM | > 62500 nM | CC(C)(C#N)c1nnc(-c2ccc3c(c2)N(Cc2ccc(-c4cnc(C(F)(F)F)nc4)cc2)C(=O)[C@@H](N)CS3(=O)=O)o1 [Example 100] | 100 % activation | 3220 nM
7 | 747 nM | 1120 nM | CC(C)(C#N)c1nnc(-c2ccc3c(c2)N(Cc2ccc(-n4cc(C(F)(F)F)cn4)cc2)C(=O)[C@@H](N)CS3(=O)=O)o1 [Example 102, 2-[5-[(3R)-3-amino-1,1,4-trioxo-5-[[4-[4-(trifluoromethyl)pyrazol-1-yl]phenyl]methyl]-2,3-dihydro-1λ^6,5-benzothiazepin-7-yl]-1,3,4-oxadiazol-2-yl]-2-methyl-propanenitrile] | 143 % activation | 635 nM
8 | 787 nM | 694 nM | CC(C)(C#N)c1nnc(-c2ccc3c(c2)N(Cc2ccc(-c4ncc(C(F)(F)F)o4)cc2)C(=O)[C@@H](N)CS3(=O)=O)o1 [Example 105, 2-[5-[(3R)-3-amino-1,1,4-trioxo-5-[[4-[5-(trifluoromethyl)oxazol-2-yl]phenyl]methyl]-2,3-dihydro-1λ^6,5-benzothiazepin-7-yl]-1,3,4-oxadiazol-2-yl]-2-methyl-propanenitrile] | 146 % activation | 999 nM

Further lines, the molecule ahead of its results:

Row | Compound | IC50 [1] | IC50 [2] | Emax IL2 (% activation) (primary human T-cells) | EC50 (primary human T-cells)
9 | COC(=O)N1CC2CC(c3nnc(-c4ccc5c(c4)N(Cc4ccc(-c6ccc(C(F)(F)F)cc6)nc4)C(=O)[C@@H](N)CS5(=O)=O)o3)(C2)C1 [Example 58, methyl 1-[5-[(3R)-3-amino-1,1,4-trioxo-5-[[6-[4-(trifluoromethyl)phenyl]-3-pyridyl]methyl]-2,3-dihydro-1λ^6,5-benzothiazepin-7-yl]-1,3,4-oxadiazol-2-yl]-3-azabicyclo[3.1.1]heptane-3-carboxylate] | 2140 nM | 26400 nM | 505 % activation | 4710 nM
10 | N#CC1(c2nnc(-c3ccc4c(c3)N(Cc3ccc(-c5ccc(C(F)(F)F)cn5)cc3)C(=O)[C@@H](N)CS4(=O)=O)o2)CC1 [Example 62, 1-[5-[(3R)-3-amino-1,1,4-trioxo-5-[[4-[5-(trifluoromethyl)-2-pyridyl]phenyl]methyl]-2,3-dihydro-1λ^6,5-benzothiazepin-7-yl]-1,3,4-oxadiazol-2-yl]cyclopropane-carbonitrile] | 1500 nM | > 19800 nM | 110 % activation | 2110 nM
11 | CCOC(F)(c1nnc(-c2ccc3c(c2)N(Cc2ccc(-c4noc(C(F)(F)F)n4)cc2)C(=O)[C@@H](N)CS3(=O)=O)o1)C(F)(F)F (stereo partly drawn) [Example 64, (3R)-3-amino-7-[5-(1-ethoxy-1,2,2,2-tetrafluoro-ethyl)-1,3,4-oxadiazol-2-yl]-1,1-dioxo-5-[[4-[5-(trifluoromethyl)-1,2,4-oxadiazol-3-yl]phenyl]methyl]-2,3-dihydro-1λ^6,5-benzothiazepin-4-one] | 2790 nM | 1960 nM | 543 % activation | 889 nM
12 | N[C@H]1CS(=O)(=O)c2ccc(-c3nnc(N4CCC(F)(F)CC4)o3)cc2N(Cc2ccc(-c3noc(C(F)(F)F)n3)cc2)C1=O [Example 68, (3R)-3-amino-7-[5-(4,4-difluoro-1-piperidyl)-1,3,4-oxadiazol-2-yl]-1,1-dioxo-5-[[4-[5-(trifluoromethyl)-1,2,4-oxadiazol-3-yl]phenyl]methyl]-2,3-dihydro-1λ^6,5-benzothiazepin-4-one] | 625 nM | 2640 nM | 351 % activation | 1160 nM
13 | CC(C)(C#N)c1nnc(-c2cc3c(cc2F)S(=O)(=O)C[C@H](N)C(=O)N3Cc2ccc(-c3ccc(C(F)(F)F)cn3)cc2)o1 [Example 88, 2-[5-[(3R)-3-amino-8-fluoro-1,1,4-trioxo-5-[[4-[5-(trifluoromethyl)-2-pyridyl]phenyl]methyl]-2,3-dihydro-1λ^6,5-benzothiazepin-7-yl]-1,3,4-oxadiazol-2-yl]-2-methyl-propanenitrile] | 183 nM | 762 nM | 121 % activation | 264 nM
14 | NC(c1nnc(-c2ccc3c(c2)N(Cc2ccc(-c4noc(C(F)(F)F)n4)cc2)C(=O)[C@@H](N)CS3(=O)=O)o1)C(F)(F)F (stereo partly shown) [Example 94] | 9190 nM | > 60000 nM | 76 % activation | 2660 nM
15 | CCC(O)(c1nnc(-c2ccc3c(c2)N(Cc2ccc(-c4noc(C(F)(F)F)n4)cc2)C(=O)[C@@H](N)CS3(=O)=O)o1)C(F)(F)F (stereo partly shown) [Example 95] | 2420 nM | 19000 nM | 172 % activation | 808 nM
16 | CC(C)(C#N)c1nnc(-c2ccc3c(c2)N(Cc2ccc(-c4noc(C5CCC(F)(F)CC5)n4)cc2)C(=O)[C@@H](N)CS3(=O)=O)o1 [Example 101, 2-[5-[(3R)-3-amino-5-[[4-[5-(4,4-difluorocyclohexyl)-1,2,4-oxadiazol-3-yl]phenyl]methyl]-1,1,4-trioxo-2,3-dihydro-1λ^6,5-benzothiazepin-7-yl]-1,3,4-oxadiazol-2-yl]-2-methyl-propanenitrile] | 192 nM | 25600 nM | 429 % activation | 3650 nM
